{"source": "paper PMC7273348", "about": "“Unraveling a Tangled Skein: Evolutionary Analysis of the Bacterial Gibberellin Biosynthetic Operon” (mSphere, 2020)", "target": "T1, ReIDS2 (ReGGPS2) (Rhizobium etli, UniProt Q8KLD2)", "T1 construct": "gene RHE_PD00244; full-length ORF in pET101/D-TOPO, C-terminal 6xHis tag, E. coli BL21 Star", "T1 sequence (Q8KLD2 1-309)": "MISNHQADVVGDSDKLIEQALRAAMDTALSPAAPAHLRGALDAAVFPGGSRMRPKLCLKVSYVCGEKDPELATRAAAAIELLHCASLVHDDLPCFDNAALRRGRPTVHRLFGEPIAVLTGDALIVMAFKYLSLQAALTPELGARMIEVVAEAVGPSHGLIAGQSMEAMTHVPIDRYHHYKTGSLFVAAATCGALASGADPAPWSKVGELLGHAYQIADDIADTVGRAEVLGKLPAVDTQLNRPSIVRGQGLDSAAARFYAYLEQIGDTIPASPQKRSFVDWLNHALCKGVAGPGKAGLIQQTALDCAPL", "test": "LC-MS/MS detection of GGPP product", "type": "biochemical", "details": "50 uM IPP + 50 uM DMAPP; MOPSO pH 7.2, 10 mM MgCl2; 30 C, 2 h; main product GGPP", "data": [{"smiles": "CC(C)=CCOP(=O)(O)OP(=O)(O)O", "note": "[DMAPP]", "values": [{"measurement": "LC-MS/MS detection of GGPP product", "result": "produced GGPP as its major product from the universal isoprenoid precursors IPP and DMAPP"}]}]}
